Legend:
Assay type in all cases: in vivo
[1] = tested on: heartshape false pickerelweed (Monochoria vaginalis (Burm.f.) C.Presl); assay: Test Example 1: herbicidal effect by soil application to paddy field; details: paddy field soil application; active ingredient 1,000 g per 1 hectare; wettable powder added dropwise to water surface the day after sowing; examined on the 21st day after application
In short: (§1)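 Plants were sown in flooded (3 cm) paddy soil and evaluated for herbicidal effect 21 days after soil application in a greenhouse.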

[2] = tested on: early watergrass (Echinochloa oryzicola Vasing); assay: as above; details: paddy field soil application; active ingredient 1,000 g per 1 hectare; wettable powder added dropwise to water surface the day after sowing; examined on the 21st day after application
In short: as §1

[3] = tested on: Japanese bulrush (Scirpus juncoides Roxb.); assay: as above; details: paddy field soil application; active ingredient 1,000 g per 1 hectare; wettable powder added dropwise to water surface the day after sowing; examined on the 21st day after application
In short: as §1

[4] = tested on: slender amaranth (Amaranthus viridis L.); assay: Test Example 3: herbicidal effect by application to upland field (foliage treatment); details: 14th day after application; for herbicidal effect, Slender Amaranth: foliage treatment, 1,000 g active ingredient per 1 hectare, greenhouse
In short: (§2)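 Upland foliage test in greenhouse pots of field soil: seedlings sprayed at two weeks post-sowing with 1,000 g/ha active ingredient (wettable powder, 1,000 L water/ha). Scored 14 d after application.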

[5] = tested on: velvetleaf (Abutilon theophrasti medicus); assay: as above; details: 14th day after application; for herbicidal effect, Velvetleaf: foliage treatment, 1,000 g active ingredient per 1 hectare, greenhouse
In short: as §2

[6] = tested on: green foxtail (Setaria viridis (L.) P. Beauv.); assay: as above; details: 14th day after application; for herbicidal effect, Green Foxtail: foliage treatment, 1,000 g active ingredient per 1 hectare, greenhouse
In short: as §2

[7] = tested on: barnyardgrass (Echinochloa crus-galli (L.) P. Beauv. var. crus-galli); assay: as above; details: 14th day after application; for herbicidal effect, Barnyardgrass: foliage treatment, 1,000 g active ingredient per 1 hectare, greenhouse
In short: as §2

[8] = tested on: slender amaranth (Amaranthus viridis L.); assay: Test Example 2: herbicidal effect by soil application to upland field; details: soil surface spray, upland field soil, 1,000 g active ingredient per hectare, 21st day after application
In short: (§3)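 Scoring on a standard scale took place 21 days after application, with plants kept in a greenhouse. Active ingredient (1,000 g/ha, as diluted wettable powder, 1,000 L/ha) was sprayed evenly onto soil directly after sowing and covering seeds.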

[9] = tested on: velvetleaf (Abutilon theophrasti medicus); assay: as above; details: soil surface spray, upland field soil, 1,000 g active ingredient per hectare, 21st day after application
In short: as §3

[10] = tested on: green foxtail (Setaria viridis (L.) P. Beauv.); assay: as above; details: soil surface spray, upland field soil, 1,000 g active ingredient per hectare, 21st day after application
In short: as §3

[11] = tested on: barnyardgrass (Echinochloa crus-galli (L.) P. Beauv. var. crus-galli); assay: as above; details: soil surface spray, upland field soil, 1,000 g active ingredient per hectare, 21st day after application
In short: as §3

[12] = foliage treatment, plants grown two weeks, 1,000 g active ingredient per hectare

| SMILES | herbicidal effect, Monochoria vaginalis (Burm. f.) C. Presl [1] | herbicidal effect, Echinochloa oryzicola Vasing [2] | herbicidal effect, Scirpus juncoides Roxb. [3] | herbicidal effect, Slender Amaranth [4] | herbicidal effect, Velvetleaf [5] | herbicidal effect, Green Foxtail [6] | herbicidal effect, Barnyardgrass [7] | herbicidal effect (index), Slender Amaranth [8] | herbicidal effect (index), Velvetleaf [9] | herbicidal effect (index), Green Foxtail [10] | herbicidal effect (index), Barnyardgrass [11] | herbicidal effect (index), Slender Amaranth [4, 12] | herbicidal effect (index), Velvetleaf [5, 12] | herbicidal effect (index), Green Foxtail [6, 12] | herbicidal effect (index), Barnyardgrass [7, 12] |
| --- | --- | --- | --- | --- | --- | --- | --- | --- | --- | --- | --- | --- | --- | --- | --- |
| O=C(C1=C(O)C2CCC(C2)C1=O)c1ccc(C(F)(F)F)n(C2CC2)c1=O (stereo not shown) [III-5] | 5 (90% or more of herbicidal effect and crop phytotoxicity) | 5 (90% or more of herbicidal effect and crop phytotoxicity) | 5 (90% or more of herbicidal effect and crop phytotoxicity) | 5 (90% or more of herbicidal effect and crop phytotoxicity) | 5 (90% or more of herbicidal effect and crop phytotoxicity) | 5 (90% or more of herbicidal effect and crop phytotoxicity) | 5 (90% or more of herbicidal effect and crop phytotoxicity) | 5 (90% or more of herbicidal effect and crop phytotoxicity) | 5 (90% or more of herbicidal effect and crop phytotoxicity) | 5 (90% or more of herbicidal effect and crop phytotoxicity) | 5 (90% or more of herbicidal effect and crop phytotoxicity) |  |  |  |  |
| O=C1CCCC(O)=C1C(=O)c1ccc(C(F)(F)F)n(CS(=O)(=O)C2CC2)c1=O [I-53] | 5 (90% or more of herbicidal effect and crop phytotoxicity) | 5 (90% or more of herbicidal effect and crop phytotoxicity) | 5 (90% or more of herbicidal effect and crop phytotoxicity) |  |  |  |  | 5 (90% or more of herbicidal effect and crop phytotoxicity) | 5 (90% or more of herbicidal effect and crop phytotoxicity) | 5 (90% or more of herbicidal effect and crop phytotoxicity) | 5 (90% or more of herbicidal effect and crop phytotoxicity) | 5 (90% or more of herbicidal effect and crop phytotoxicity) | 5 (90% or more of herbicidal effect and crop phytotoxicity) | 5 (90% or more of herbicidal effect and crop phytotoxicity) | 5 (90% or more of herbicidal effect and crop phytotoxicity) |
| CCCCCCn1c(C(F)(F)F)ccc(C(=O)C2=C(O)C3CCC(C3)C2=O)c1=O (stereo not shown) [III-10] | 5 (90% or more of herbicidal effect and crop phytotoxicity) | 5 (90% or more of herbicidal effect and crop phytotoxicity) | 5 (90% or more of herbicidal effect and crop phytotoxicity) | 4 (70 to less than 90% of herbicidal effect and crop phytotoxicity) | 5 (90% or more of herbicidal effect and crop phytotoxicity) | 5 (90% or more of herbicidal effect and crop phytotoxicity) | 5 (90% or more of herbicidal effect and crop phytotoxicity) | 5 (90% or more of herbicidal effect and crop phytotoxicity) | 5 (90% or more of herbicidal effect and crop phytotoxicity) | 5 (90% or more of herbicidal effect and crop phytotoxicity) | 5 (90% or more of herbicidal effect and crop phytotoxicity) |  |  |  |  |
| CS(=O)(=O)CCCn1c(C(F)(F)F)ccc(C(=O)C2=C(O)C3CCC(C3)C2=O)c1=O (stereo not shown) [III-33] | 5 (90% or more of herbicidal effect and crop phytotoxicity) | 5 (90% or more of herbicidal effect and crop phytotoxicity) | 5 (90% or more of herbicidal effect and crop phytotoxicity) | 5 (90% or more of herbicidal effect and crop phytotoxicity) | 5 (90% or more of herbicidal effect and crop phytotoxicity) | 5 (90% or more of herbicidal effect and crop phytotoxicity) | 5 (90% or more of herbicidal effect and crop phytotoxicity) | 5 (90% or more of herbicidal effect and crop phytotoxicity) | 5 (90% or more of herbicidal effect and crop phytotoxicity) | 5 (90% or more of herbicidal effect and crop phytotoxicity) | 4 (70 to less than 90% of herbicidal effect and crop phytotoxicity) |  |  |  |  |
| O=C1CCCC(O)=C1C(=O)c1ccc(C(F)(F)F)n(N2CCOCC2)c1=O [I-178] | 5 (90% or more of herbicidal effect and crop phytotoxicity) | 5 (90% or more of herbicidal effect and crop phytotoxicity) | 5 (90% or more of herbicidal effect and crop phytotoxicity) | 5 (90% or more of herbicidal effect and crop phytotoxicity) | 5 (90% or more of herbicidal effect and crop phytotoxicity) | 5 (90% or more of herbicidal effect and crop phytotoxicity) | 5 (90% or more of herbicidal effect and crop phytotoxicity) | 5 (90% or more of herbicidal effect and crop phytotoxicity) | 5 (90% or more of herbicidal effect and crop phytotoxicity) | 5 (90% or more of herbicidal effect and crop phytotoxicity) | 5 (90% or more of herbicidal effect and crop phytotoxicity) |  |  |  |  |
| CCCS(=O)(=O)Oc1c(C(=O)c2ccc(C(F)(F)F)n(CCOCCOC)c2=O)cnn1CC [IV-204] | 5 (90% or more of herbicidal effect and crop phytotoxicity) | 5 (90% or more of herbicidal effect and crop phytotoxicity) | 5 (90% or more of herbicidal effect and crop phytotoxicity) | 5 (90% or more of herbicidal effect and crop phytotoxicity) | 5 (90% or more of herbicidal effect and crop phytotoxicity) | 5 (90% or more of herbicidal effect and crop phytotoxicity) | 5 (90% or more of herbicidal effect and crop phytotoxicity) | 5 (90% or more of herbicidal effect and crop phytotoxicity) | 5 (90% or more of herbicidal effect and crop phytotoxicity) | 5 (90% or more of herbicidal effect and crop phytotoxicity) | 5 (90% or more of herbicidal effect and crop phytotoxicity) |  |  |  |  |
| COCCOCCn1c(C(F)(F)F)ccc(C(=O)C2=C(O)C(C)(C)CCC2=O)c1=O [II-31] | 5 (90% or more of herbicidal effect and crop phytotoxicity) | 5 (90% or more of herbicidal effect and crop phytotoxicity) | 5 (90% or more of herbicidal effect and crop phytotoxicity) | 5 (90% or more of herbicidal effect and crop phytotoxicity) | 5 (90% or more of herbicidal effect and crop phytotoxicity) | 5 (90% or more of herbicidal effect and crop phytotoxicity) | 5 (90% or more of herbicidal effect and crop phytotoxicity) | 5 (90% or more of herbicidal effect and crop phytotoxicity) | 5 (90% or more of herbicidal effect and crop phytotoxicity) | 5 (90% or more of herbicidal effect and crop phytotoxicity) | 5 (90% or more of herbicidal effect and crop phytotoxicity) |  |  |  |  |
| CCCS(=O)(=O)Oc1c(C(=O)c2ccc(C(F)(F)F)n(-c3cc(F)ccc3F)c2=O)cnn1C [IV-84] | 5 (90% or more of herbicidal effect and crop phytotoxicity) | 5 (90% or more of herbicidal effect and crop phytotoxicity) | 5 (90% or more of herbicidal effect and crop phytotoxicity) | 4 (70 to less than 90% of herbicidal effect and crop phytotoxicity) | 5 (90% or more of herbicidal effect and crop phytotoxicity) | 3 (50 to less than 70% of herbicidal effect and crop phytotoxicity) | 4 (70 to less than 90% of herbicidal effect and crop phytotoxicity) | 5 (90% or more of herbicidal effect and crop phytotoxicity) | 5 (90% or more of herbicidal effect and crop phytotoxicity) | 5 (90% or more of herbicidal effect and crop phytotoxicity) | 5 (90% or more of herbicidal effect and crop phytotoxicity) |  |  |  |  |
